Values of other authors as cited in US20250295639A1, “METHODS FOR TREATING HEART DISEASES” (Cytokinetics, Incorporated, priority 2024, published 2025).

System: patients with oHCM
Conditions: cited from earlier work

CC(C)n1c(=O)cc(N[C@@H](C)c2ccccc2)[nH]c1=O [mavacamten]
benefit (pVO2, exercise duration, peak METs) in patients receiving beta blockers (EXPLORER-HCM): attenuation of benefit
peak oxygen uptake (pVO2) and other CPET parameters (patients with oHCM): has shown efficacy
